Laboratory results published in US10239873B2, “7-azaindole or 4,7-diazaindole derivatives as IKKϵ epsilon and TBK1 inhibitor and pharmaceutical composition comprising same” (GREEN CROSS CORPORATION, priority 2015, dated 2019).

Biological target: T1, TBK1 (Homo sapiens, UniProt Q9UHD2)
T1 construct: purchased Promega (Invitrogen is also named in the same bracket) V4158; PR8031B; V3991 (not assigned to the two kinases)
T1 sequence (Q9UHD2 1-729): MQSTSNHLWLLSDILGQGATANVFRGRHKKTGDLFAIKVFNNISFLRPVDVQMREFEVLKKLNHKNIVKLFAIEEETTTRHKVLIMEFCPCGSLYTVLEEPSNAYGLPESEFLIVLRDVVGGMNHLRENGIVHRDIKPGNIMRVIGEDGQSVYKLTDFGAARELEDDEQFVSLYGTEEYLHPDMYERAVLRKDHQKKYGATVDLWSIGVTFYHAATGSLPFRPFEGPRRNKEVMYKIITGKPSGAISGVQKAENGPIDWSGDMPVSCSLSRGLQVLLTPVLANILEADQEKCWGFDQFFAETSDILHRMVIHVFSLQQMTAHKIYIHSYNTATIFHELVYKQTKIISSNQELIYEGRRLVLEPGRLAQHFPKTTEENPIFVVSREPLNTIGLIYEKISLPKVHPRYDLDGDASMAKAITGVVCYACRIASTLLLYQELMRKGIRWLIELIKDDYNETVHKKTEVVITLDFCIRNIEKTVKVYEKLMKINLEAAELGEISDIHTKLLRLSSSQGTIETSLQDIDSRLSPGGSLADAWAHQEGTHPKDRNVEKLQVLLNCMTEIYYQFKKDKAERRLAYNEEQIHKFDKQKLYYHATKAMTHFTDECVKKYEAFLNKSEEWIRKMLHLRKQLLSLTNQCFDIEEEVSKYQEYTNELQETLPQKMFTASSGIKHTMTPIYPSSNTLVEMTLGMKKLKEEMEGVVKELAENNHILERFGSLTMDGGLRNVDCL
Test: ADP-Glo Kinase Assay, inhibition activity on TBK1
Type: biochemical
How it was run: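 In 40 mM Tris pH 7.5 with 20 mM MgCl2 and 0.1 mg/mL BSA, each enzyme (IKKε or TBK1 kinase system) was run according to the manufacturer's protocol. ADP formed was detected by ADP-Glo luminescence.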

IC50 | Compound
0.012 µM | CC1CN(C(=O)c2cccs2)CC=C1c1c[nH]c2ncc(-c3ccc(C(=O)N4CCOCC4)cc3)cc12 (stereo not shown) [Example 215, (4-(3-(3-methyl-1-(thiophene-2-carbonyl)-1,2,3,6-tetrahydropyridin-4-yl)-1H-pyrrolo[2,3-b]pyridin-5-yl)phenyl)(morpholino)methanone]
0.073 µM | CC1CN(C(=O)c2cccs2)CC=C1c1c[nH]c2ncc(-c3ccc(CN4CCOCC4)s3)cc12 (stereo not shown) [Example 216, (5-methyl-4-(5-(5-(morpholinomethyl)thiophen-2-yl)-1H-pyrrolo[2,3-b]pyridin-3-yl)-5,6-dihydropyridin-1(2H)-yl)(thiophen-2-yl)methanone]
0.36 µM | CN(C(=O)N1CC=C(c2c[nH]c3ncc(-c4cccc(S(C)(=O)=O)c4)cc23)CC1)C1CCCC1 [Example 217, N-cyclopentyl-N-methyl-4-(5-(3-(methylsulfonyl)phenyl)-1H-pyrrolo[2,3-b]pyridin-3-yl)-5,6-dihydropyridine-1(2H)-carboxamide]
> 10 µM | CN(C(=O)N1CC=C(c2c[nH]c3ncc(-c4cccc(S(N)(=O)=O)c4)cc23)CC1)C1CCCC1 [Example 218, N-cyclopentyl-N-methyl-4-(5-(3-sulfamoylphenyl)-1H-pyrrolo[2,3-b]pyridin-3-yl)-5,6-dihydropyridine-1(2H)-carboxamide]
> 10 µM | CN(C(=O)N1CC=C(c2c[nH]c3ncc(-c4ccc(S(N)(=O)=O)cc4)cc23)CC1)C1CCCC1 [Example 219, N-cyclopentyl-N-methyl-4-(5-(4-sulfamoylphenyl)-1H-pyrrolo[2,3-b]pyridin-3-yl)-5,6-dihydropyridine-1(2H)-carboxamide]
1.3 µM | COc1ccc(-c2cnc3[nH]cc(C4=CCN(C(=O)N(C)C5CCCC5)CC4)c3c2)cc1OC [Example 220, N-cyclopentyl-4-(5-(3,4-dimethoxyphenyl)-1H-pyrrolo[2,3-b]pyridin-3-yl)-N-methyl-5,6-dihydropyridine-1(2H)-carboxamide]
2 µM | Cc1[nH]c2ncc(-c3ccc(S(N)(=O)=O)cc3)cc2c1C1=CCN(C(=O)NC2CCCC2)CC1 [Example 221, N-cyclopentyl-4-(2-methyl-5-(4-sulfamoylphenyl)-1H-pyrrolo[2,3-b]pyridin-3-yl)-5,6-dihydropyridine-1(2H)-carboxamide]
6.8 µM | CNS(=O)(=O)c1ccc(-c2cnc3[nH]c(C)c(C4=CCN(C(=O)NC5CCCC5)CC4)c3c2)cc1 [Example 222, N-cyclopentyl-4-(2-methyl-5-(4-(N-methylsulfamoyl)phenyl)-1H-pyrrolo[2,3-b]pyridin-3-yl)-5,6-dihydropyridine-1(2H)-carboxamide]
1.6 µM | Cc1[nH]c2ncc(-c3ccc(C(=O)N4CCOCC4)cc3)cc2c1C1=CCN(C(=O)NC2CCCC2)CC1 [Example 223, N-cyclopentyl-4-(2-methyl-5-(4-(morpholine-4-carbonyl)phenyl)-1H-pyrrolo[2,3-b]pyridin-3-yl)-5,6-dihydropyridine-1(2H)-carboxamide]
> 10 µM | COc1ccc(-c2cc3c(C4=CCN(C(=O)OC(C)(C)C)CC4)c[nH]c3nc2N)cc1OC [Example 224, tert-butyl 4-(6-amino-5-(3,4-dimethoxyphenyl)-1H-pyrrolo[2,3-b]pyridin-3-yl)-5,6-dihydropyridine-1(2H)-carboxylate]
> 10 µM | CC(C)(C)OC(=O)N1CC=C(c2c[nH]c3nc(N)c(-c4ccc(CN5CCOCC5)s4)cc23)CC1 [Example 225, tert-butyl 4-(6-amino-5-(5-(morpholinomethyl)thiophen-2-yl)-1H-pyrrolo[2,3-b]pyridin-3-yl)-5,6-dihydropyridine-1(2H)-carboxylate]
> 10 µM | COc1ccc(-c2cc3c(C4=CCN(C(=O)NC5CCCC5)CC4)c[nH]c3nc2N)cc1OC [Example 226, 4-(6-amino-5-(3,4-dimethoxyphenyl)-1H-pyrrolo[2,3-b]pyridin-3-yl)-N-cyclopentyl-5,6-dihydropyridine-1(2H)-carboxamide]
1.5 µM | Nc1nc2[nH]cc(C3=CCN(C(=O)NC4CCCC4)CC3)c2cc1-c1ccc(CN2CCOCC2)s1 [Example 227, 4-(6-amino-5-(5-(morpholinomethyl)thiophen-2-yl)-1H-pyrrolo[2,3-b]pyridin-3-yl)-N-cyclopentyl-5,6-dihydropyridine-1(2H)-carboxamide]
0.066 µM | O=C(NC1CCCC1)N1CC=C(c2c[nH]c3ncc(-c4ccc(CN5CCOCC5)s4)nc23)CC1 [Example 229, N-cyclopentyl-4-(2-(5-(morpholinomethyl)thiophen-2-yl)-5H-pyrrolo[2,3-b]pyrazin-7-yl)-5,6-dihydropyridine-1(2H)-carboxamide]
0.32 µM | COc1ccc(-c2cnc3[nH]cc(C4=CCN(C(=O)OC(C)(C)C)CC4)c3n2)cc1OC [Example 230, tert-butyl 4-(2-(3,4-dimethoxyphenyl)-5H-pyrrolo[2,3-b]pyrazin-7-yl)-5,6-dihydropyridine-1(2H)-carboxylate]
0.04 µM | O=C(c1cccs1)N1CC=C(c2c[nH]c3ncc(-c4ccc(CN5CCOCC5)s4)nc23)CC1 [Example 233, (4-(2-(5-(morpholinomethyl)thiophen-2-yl)-5H-pyrrolo[2,3-b]pyrazin-7-yl)-5,6-dihydropyridin-1(2H)-yl)(thiophen-2-yl)methanone]
0.47 µM | CC(C)(C)OC(=O)N1CC=C(c2c[nH]c3ncc(-c4ccc(CN5CCOCC5)s4)nc23)CC1 [Example 234, tert-butyl 4-(2-(5-(morpholinomethyl)thiophen-2-yl)-5H-pyrrolo[2,3-b]pyrazin-7-yl)-5,6-dihydropyridine-1(2H)-carboxylate]
> 10 µM | COc1ccc(-c2cnc3[nH]cc(C4CCCN(C(=O)OC(C)(C)C)C4)c3c2)cc1OC (stereo not shown) [Example 236, tert-butyl 3-(5-(3,4-dimethoxyphenyl)-1H-pyrrolo[2,3-b]pyridin-3-yl)piperidine-1-carboxylate]
0.3 µM | COc1ccc(-c2cnc3[nH]cc(C4=CCN(C(=O)OC(C)(C)C)CC4)c3c2)cc1OC [Example 239, tert-butyl 4-(5-(3,4-dimethoxyphenyl)-1H-pyrrolo[2,3-b]pyridin-3-yl)-5,6-dihydropyridine-1(2H)-carboxylate]
0.2 µM | CC(=O)Nc1cccc(-c2cnc3[nH]cc(C4=CCN(C(=O)OC(C)(C)C)CC4)c3c2)c1 [Example 240, tert-butyl 4-(5-(3-acetamidophenyl)-1H-pyrrolo[2,3-b]pyridin-3-yl)-5,6-dihydropyridine-1(2H)-carboxylate]
0.17 µM | CC(=O)Nc1ccc(-c2cnc3[nH]cc(C4=CCN(C(=O)OC(C)(C)C)CC4)c3c2)cc1 [Example 241, tert-butyl 4-(5-(4-acetamidophenyl)-1H-pyrrolo[2,3-b]pyridin-3-yl)-5,6-dihydropyridine-1(2H)-carboxylate]
1.3 µM | CCCOc1cccc(-c2cnc3[nH]cc(C4=CCN(C(=O)OC(C)(C)C)CC4)c3c2)c1 [Example 242, tert-butyl 4-(5-(3-propoxyphenyl)-1H-pyrrolo[2,3-b]pyridin-3-yl)-5,6-dihydropyridine-1(2H)-carboxylate]
1.7 µM | CCCOc1ccc(-c2cnc3[nH]cc(C4=CCN(C(=O)OC(C)(C)C)CC4)c3c2)cc1 [Example 243, tert-butyl 4-(5-(4-propoxyphenyl)-1H-pyrrolo[2,3-b]pyridin-3-yl)-5,6-dihydropyridine-1(2H)-carboxylate]
1.8 µM | COc1ccccc1-c1cnc2[nH]cc(C3=CCN(C(=O)OC(C)(C)C)CC3)c2c1 [Example 244, tert-butyl 4-(5-(2-methoxyphenyl)-1H-pyrrolo[2,3-b]pyridin-3-yl)-5,6-dihydropyridine-1(2H)-carboxylate]
8.8 µM | COc1ccc(-c2cnc3[nH]cc(C4=CN(C(=O)OC(C)(C)C)CCC4)c3c2)cc1OC [Example 245, tert-butyl 5-(5-(3,4-dimethoxyphenyl)-1H-pyrrolo[2,3-b]pyridin-3-yl)-3,4-dihydropyridine-1(2H)-carboxylate]
4.1 µM | COc1ccc(-c2cnc3[nH]cc(-c4ccc(CC(=O)NC5CCCC5)cc4)c3c2)cc1OC [Example 246, N-cyclopentyl-2-(4-(5-(3,4-dimethoxyphenyl)-1H-pyrrolo[2,3-b]pyridin-3-yl)phenyl)acetamide 2,2,2-trifluoroacetate]
1.3 µM | O=C(O)Cc1ccc(-c2c[nH]c3ncc(-c4ccc(CN5CCOCC5)s4)cc23)cc1 [Example 247, 2-(4-(5-(5-(morpholinomethyl)thiophen-2-yl)-1H-pyrrolo[2,3-b]pyridin-3-yl)phenyl)acetic acid]
2.1 µM | O=C(Cc1ccc(-c2c[nH]c3ncc(-c4ccc(CN5CCOCC5)s4)cc23)cc1)NC1CCCC1 [Example 248, N-cyclopentyl-2-(4-(5-(5-(morpholinomethyl)thiophen-2-yl)-1H-pyrrolo[2,3-b]pyridin-3-yl)phenyl)acetamide 2,2,2-trifluoroacetate]
